Where “and” joins values, the source holds several entries; their conditions need not be identical. Equal entries are not always repeated.
Tested on: 327498-153-R-J2-PDC complex spheroid growth, % test/control
Assay: Anticancer human tumor 327498-153-R-J2-PDC patient-derived uterine carcinosarcoma cell line growth inhibition [Asc]
Conditions: for viability, T/C: stronger effect = lower value
Experimental: Multicellular complex tumor spheroid response to apoptosis pathway targeting inhibitors Alrizomadlin, Pelcitoclax, and Dasminapant in combination with a variety of drugs and investigational agents in selected tumor cell lines
The MDM2 inhibitor alrizomadlin, the Bcl-2/Bcl-xL inhibitor pelcitoclax, and the IAPs inhibitor dasminapant were evaluated both individually and in combination with standard of care and investigational anticancer small molecules within a complex spheroid model of solid tumors. . Complex spheroids include a stromal component modeled by human endothelial cells (HUVEC) and fibroblasts modeled by human mesenchymal stem cells (MSCs). The concentration ranges selected for each drug and investigational agent were based upon clinically achievable concentrations if the clinical Cmax of the agent was known.
Compounds. The drugs and investigational agents: alrizomadlin (APG-115; NSC831270), pelcitoclax (APG-1252; NSC835773), dasminapant (APG-1387;NSC834197), TAK-243 (NSC785004), copanlisib (NSC809693), olaparib (NSC753686), talazoparib (NSC767125), cobimetinib (NSC 768068), eltanexor (KPT-8602, NSC 794443), abemaciclib (NSC 768073), sotorasib (NSC818433), adagrasib (NSC 831453), MRTX-1133 (NSC 836407), Iadademestat (ORY1001, NSC 806812), and RMC-4630 (NSC839698), were obtained from the NCI Developmental Therapeutics Program Chemical Repository. The FDA-approved anticancer drug set is available from the Developmental Therapeutics Program at https://dtp.cancer.gov/organization/dscb/obtaining/available plates.htm. […] The stock solutions were prepared in dimethyl sulfoxide (DMSO, Sigma-Aldrich, St. Louis, MO, cat. D2650) at 800-fold the tested concentration and stored at -70 degrees C prior to their use. All drugs and investigational agents were tested over a range starting from a high concentration at or near the clinical Cmax and decreasing in half-log increments. If the clinical Cmax for an agent had not been determined, the highest concentration tested was 10 microM.
The patient-derived cancer (PDC) cell lines include five colon adenocarcinomas: 186277-243-T-J2-PDC, 616215-338-R-J1-PDC, 439559-082-T-J2-PDC, 463943-066-T-J2-PDC, and 519858-162-T-J1-PDC; three pancreatic carcinomas: 323965-272-R-J2-PDC, 521955-158-R6-J3-PDC, and 521955-158-R2-J5-PDC; two uterine sarcomas: 327498-152-R-J2-PDC and 993429-296-R-J1-PDC; two rhabdomyosarcomas: 755483-174-R-J1-PDC and 772245-204-R-J1-PDC; two soft tissue sarcomas: 126254-015-R-J1-PDC and 494315-158-R-J1-PDC; two malignant fibrous histiocytomas: 317291-083-R-J1-PDC and 596521-263-R-J1-PDC; two breast carcinomas: 171881-019-R-J1-PDC and 885512-296-R-J2-PDC; and one ovarian carcinoma: 6556581-035-R-J-PDC were obtained from the NCI PDMR, (https://pdmr.cancer.gov). The established cell lines HSSY-2 synovial sarcoma (RRID:CVCL 8719), SYO-1 synovial sarcoma (RRID:CVCL_7146), MPNST malignant peripheral neural sheath tumor were obtained from the Sloan Kettering Institute. The following established cell lines were purchased from the American Type Culture Collection (ATCC, Manassas, VA), Sor the received from the NCI repository:, PANC-1 pancreatic carcinoma (CRL-1469, RRID:CVCL_0480), OVCAR-5 ovarian carcinoma (RRID:CVCL_1628), OVCAR-8 ovarian carcinoma (RRID:CVCL_1629), , MCF-7 breast carcinoma (CRL-12584, RRID:CVCL_0031), MDA-MB-231 breast carcinoma (CRL-12532, RRID:CVCL_0062), NCI-H1876 small cell lung carcinoma (CRL-5902, RRID:CVCL_1503), NCI-H510A small cell lung carcinoma (HTB-184, RRID:CVCL_1565), NCI-H1417 (CRL-5869, RRID:CVCL_1469), and NCI-H196 small cell lung carcinoma (CRL-5823, RRID:CVCL_1509). Dr. Peter Houghton (Greehey Children's Cancer Research Institute, University of Texas Health Science Center, San Antonio, TX) provided Rh-18 rhabdomyosarcoma (RRID:CVCL_1659). Pooled donor human umbilical vein endothelial cells (HUVEC, Lonza, cat. CC-2519) and human mesenchymal stem cells (hMSC, Lonza, cat. PT-2501) were purchased from Lonza (Walkersville, MD).
Cell Culture. […]

[1] = curve of first compound, second compound 0.1 µM
[2] = curve of first compound, second compound 0.316 µM
[3] = curve of first compound, second compound 1 µM
[4] = second compound 0.1 µM, first compound 0.00316 µM
[5] = second compound 0.1 µM, first compound 0.01 µM
[6] = second compound 0.1 µM, first compound 0.0316 µM
[7] = second compound 0.1 µM, first compound 0.1 µM
[8] = second compound 0.316 µM, first compound 0.00316 µM
[9] = second compound 0.316 µM, first compound 0.01 µM
[10] = second compound 0.316 µM, first compound 0.0316 µM
[11] = second compound 0.316 µM, first compound 0.1 µM
[12] = second compound 1 µM, first compound 0.00316 µM
[13] = second compound 1 µM, first compound 0.01 µM
[14] = second compound 1 µM, first compound 0.0316 µM
[15] = second compound 1 µM, first compound 0.1 µM
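Note: spheroids exposed to compound for 7 days after 3 days of growth.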
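Throughout, for viability, T/C: 100% = DMSO vehicle control wells.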

O=C(c1ccc(F)c(F)c1Nc1ccc(I)cc1F)N1CC(O)([C@@H]2CCCCN2)C1 + Cc1c(S(C)(=O)=O)c(-c2cc(F)cc(N3CCN(c4ccc(NS(=O)(=O)c5ccc(NC(CCN6CCC(C(=O)OCCCP(=O)(O)O)CC6)CSc6ccccc6)c(S(=O)(=O)C(F)(F)F)c5)cc4)CC3)c2)c(-c2ccc(Cl)cc2)n1C(C)C
IC50 [1]: 277 nM | IC50 [2]: 215 nM | IC50 [3]: 196 nM | IC50 (curve of first compound, second compound 3.16 µM): 146 nM | IC50 (curve of first compound, second compound 10 µM): 458 nM | viability, T/C [4]: 92.1% | viability, T/C [5]: 96.2% | viability, T/C [6]: 81.7% | viability, T/C [7]: 67.3% | viability, T/C (second compound 0.1 µM, first compound 0.316 µM): 49% | viability, T/C (second compound 0.1 µM, first compound 1 µM): 18.4% | viability, T/C [8]: 91.5% | viability, T/C [9]: 80.4% | viability, T/C [10]: 76.9% | viability, T/C [11]: 62.9% | viability, T/C (second compound 0.316 µM, first compound 0.316 µM): 44.1% | viability, T/C (second compound 0.316 µM, first compound 1 µM): 14.6% | viability, T/C [12]: 98.6% | viability, T/C [13]: 80.6% | viability, T/C [14]: 74.5% | viability, T/C [15]: 58.7% | viability, T/C (second compound 1 µM, first compound 0.316 µM): 49% | viability, T/C (second compound 1 µM, first compound 1 µM): 12.9% | viability, T/C (second compound 3.16 µM, first compound 0.00316 µM): 91.5% | viability, T/C (second compound 3.16 µM, first compound 0.01 µM): 84.9% | viability, T/C (second compound 3.16 µM, first compound 0.0316 µM): 75.1% | viability, T/C (second compound 3.16 µM, first compound 0.1 µM): 56.4% | viability, T/C (second compound 3.16 µM, first compound 0.316 µM): 35.9% | viability, T/C (second compound 3.16 µM, first compound 1 µM): 15.4% | viability, T/C (second compound 10 µM, first compound 0.00316 µM): 170% | viability, T/C (second compound 10 µM, first compound 0.01 µM): 167% | viability, T/C (second compound 10 µM, first compound 0.0316 µM): 131% | viability, T/C (second compound 10 µM, first compound 0.1 µM): 97.9% | viability, T/C (second compound 10 µM, first compound 0.316 µM): 70.8% | viability, T/C (second compound 10 µM, first compound 1 µM): 17.1%

O=C(c1ccc(F)c(F)c1Nc1ccc(I)cc1F)N1CC(O)([C@@H]2CCCCN2)C1
viability, T/C (compound 0.00316 µM): 96.9% and 101% and 95.2% | viability, T/C (compound 0.01 µM): 96.2% and 95.5% and 92.5% | viability, T/C (compound 0.0316 µM): 88.3% and 78.5% and 90.8% | viability, T/C (compound 0.1 µM): 81% and 66.6% and 80.8% | viability, T/C (compound 0.316 µM): 60.5% and 59.8% and 60.2% | viability, T/C (compound 1 µM): 27.1% and 21.9% and 27.9% | IC50 (curve of compound): 456 nM and 339 nM and 455 nM

NC1CCC(NC2CC2c2ccccc2)CC1 (configuration not stated) + CNC(C)C(=O)NC1CN(S(=O)(=O)c2cccc(S(=O)(=O)N3CCC4CCC(C(=O)NC(c5ccccc5)c5ccccc5)N4C(=O)C(NC(=O)C(C)NC)C3)c2)CCC2CCC(C(=O)NC(c3ccccc3)c3ccccc3)N2C1=O
IC50 (curve of first compound, second compound 0.01 µM): > 100 nM | IC50 (curve of first compound, second compound 0.0316 µM): > 100 nM | IC50 [1]: > 100 nM | IC50 [2]: > 100 nM | IC50 [3]: > 100 nM | viability, T/C (second compound 0.01 µM, first compound 0.000316 µM): 103% | viability, T/C (second compound 0.01 µM, first compound 0.001 µM): 106% | viability, T/C (second compound 0.01 µM, first compound 0.00316 µM): 92.3% | viability, T/C (second compound 0.01 µM, first compound 0.01 µM): 97.6% | viability, T/C (second compound 0.01 µM, first compound 0.0316 µM): 99.4% | viability, T/C (second compound 0.01 µM, first compound 0.1 µM): 96% | viability, T/C (second compound 0.0316 µM, first compound 0.000316 µM): 104% | viability, T/C (second compound 0.0316 µM, first compound 0.001 µM): 104% | viability, T/C (second compound 0.0316 µM, first compound 0.00316 µM): 101% | viability, T/C (second compound 0.0316 µM, first compound 0.01 µM): 100% | viability, T/C (second compound 0.0316 µM, first compound 0.0316 µM): 99.9% | viability, T/C (second compound 0.0316 µM, first compound 0.1 µM): 101% | viability, T/C (second compound 0.1 µM, first compound 0.000316 µM): 100% | viability, T/C (second compound 0.1 µM, first compound 0.001 µM): 101% | viability, T/C [4]: 100% | viability, T/C [5]: 104% | viability, T/C [6]: 108% | viability, T/C [7]: 98.9% | viability, T/C (second compound 0.316 µM, first compound 0.000316 µM): 101% | viability, T/C (second compound 0.316 µM, first compound 0.001 µM): 107% | viability, T/C [8]: 106% | viability, T/C [9]: 98.5% | viability, T/C [10]: 96.8% | viability, T/C [11]: 100% | viability, T/C (second compound 1 µM, first compound 0.000316 µM): 106% | viability, T/C (second compound 1 µM, first compound 0.001 µM): 113% | viability, T/C [12]: 108% | viability, T/C [13]: 105% | viability, T/C [14]: 94.7% | viability, T/C [15]: 97.8%

— PubChem BioAssay AID1963424 (Molecular Pharmacology Branch, DTP, NCI, 2024)
